Experimental data from ChEMBL document CHEMBL1909046, “DrugMatrix in vitro pharmacology data”.

Tests used:
[1] = biological target: Mu-type opioid receptor (Homo sapiens, UniProt P35372); test: DRUGMATRIX: Opiate mu (OP3, MOP) radioligand binding (ligand: [3H] Diprenorphine); type: cell membranes, CHO-K1, Membrane; conditions: cho-k1; Not Active = under 50% inhibition at 10 µM
[2] = DRUGMATRIX: Glutamate, NMDA, Agonism radioligand binding (ligand: [3H] CGP-39653); type: cell membranes, Rattus norvegicus, Wistar, Cerebral cortex, Membrane; conditions: Not Active = under 50% inhibition at 10 µM
[3] = biological target: Sodium-dependent dopamine transporter (Homo sapiens, UniProt Q01959); test: DRUGMATRIX: Dopamine Transporter radioligand binding (ligand: [125I] RTI-55); type: cell membranes, CHO-K1, Membrane; conditions: cho-k1; Not Active = under 50% inhibition at 10 µM
[4] = biological target: Cytochrome P450 3A4 (Homo sapiens, UniProt P08684); conditions: bti-tn-5b1-4; further: in other assays of this panel Not Active means under 50% inhibition at 10 µM
[5] = biological target: T1, Angiotensin-converting enzyme (Oryctolagus cuniculus, UniProt P12822); test: biochemical; type: tissue-based, Lung;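 further: enzymatic inhibition of angiotensin-converting enzyme measured with FAPGG as the substrate; in other assays of this panel Not Active means under 50% inhibition at 10 µM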
T1 sequence (P12822 whole entry): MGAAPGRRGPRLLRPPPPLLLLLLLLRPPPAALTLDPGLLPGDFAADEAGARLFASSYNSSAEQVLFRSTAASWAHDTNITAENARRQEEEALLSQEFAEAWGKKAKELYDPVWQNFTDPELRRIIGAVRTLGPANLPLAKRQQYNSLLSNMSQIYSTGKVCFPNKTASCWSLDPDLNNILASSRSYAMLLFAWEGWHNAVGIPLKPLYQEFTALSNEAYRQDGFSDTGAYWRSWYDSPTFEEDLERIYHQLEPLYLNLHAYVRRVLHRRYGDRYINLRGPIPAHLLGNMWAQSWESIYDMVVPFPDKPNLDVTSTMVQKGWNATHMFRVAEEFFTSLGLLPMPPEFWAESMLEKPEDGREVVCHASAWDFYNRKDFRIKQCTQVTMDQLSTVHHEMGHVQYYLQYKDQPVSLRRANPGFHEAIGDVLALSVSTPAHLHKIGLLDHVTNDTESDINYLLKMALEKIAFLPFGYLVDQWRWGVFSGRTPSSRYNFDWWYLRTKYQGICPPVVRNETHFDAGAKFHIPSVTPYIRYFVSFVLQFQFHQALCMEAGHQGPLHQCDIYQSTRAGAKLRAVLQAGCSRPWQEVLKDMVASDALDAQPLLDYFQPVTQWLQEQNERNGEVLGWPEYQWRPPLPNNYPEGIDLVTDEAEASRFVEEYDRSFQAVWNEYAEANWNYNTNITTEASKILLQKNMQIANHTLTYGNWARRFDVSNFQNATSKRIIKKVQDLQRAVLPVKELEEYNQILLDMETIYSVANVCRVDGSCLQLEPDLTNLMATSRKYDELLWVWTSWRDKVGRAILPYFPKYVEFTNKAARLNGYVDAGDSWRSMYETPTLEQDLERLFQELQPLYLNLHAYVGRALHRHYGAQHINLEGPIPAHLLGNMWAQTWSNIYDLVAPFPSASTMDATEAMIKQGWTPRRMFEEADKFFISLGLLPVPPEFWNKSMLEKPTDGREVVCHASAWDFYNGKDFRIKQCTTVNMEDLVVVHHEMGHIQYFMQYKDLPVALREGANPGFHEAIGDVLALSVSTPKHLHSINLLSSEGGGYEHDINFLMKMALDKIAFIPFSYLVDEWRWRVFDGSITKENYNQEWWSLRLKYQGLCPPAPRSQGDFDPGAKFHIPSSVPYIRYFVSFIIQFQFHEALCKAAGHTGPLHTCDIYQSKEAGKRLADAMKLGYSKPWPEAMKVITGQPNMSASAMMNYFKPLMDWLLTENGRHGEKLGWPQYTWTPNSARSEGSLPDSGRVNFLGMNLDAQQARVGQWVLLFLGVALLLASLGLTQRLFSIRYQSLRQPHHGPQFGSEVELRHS

[6] = biological target: T2, Alpha-1A adrenergic receptor (Rattus norvegicus, UniProt P43140); test: DRUGMATRIX: Alpha-1A adrenergic receptor radioligand binding (ligand: prazosin); type: cell membranes, Wistar, Submaxillary gland, Membrane; conditions: Not Active = under 50% inhibition at 10 µM
T2 sequence (P43140 whole entry): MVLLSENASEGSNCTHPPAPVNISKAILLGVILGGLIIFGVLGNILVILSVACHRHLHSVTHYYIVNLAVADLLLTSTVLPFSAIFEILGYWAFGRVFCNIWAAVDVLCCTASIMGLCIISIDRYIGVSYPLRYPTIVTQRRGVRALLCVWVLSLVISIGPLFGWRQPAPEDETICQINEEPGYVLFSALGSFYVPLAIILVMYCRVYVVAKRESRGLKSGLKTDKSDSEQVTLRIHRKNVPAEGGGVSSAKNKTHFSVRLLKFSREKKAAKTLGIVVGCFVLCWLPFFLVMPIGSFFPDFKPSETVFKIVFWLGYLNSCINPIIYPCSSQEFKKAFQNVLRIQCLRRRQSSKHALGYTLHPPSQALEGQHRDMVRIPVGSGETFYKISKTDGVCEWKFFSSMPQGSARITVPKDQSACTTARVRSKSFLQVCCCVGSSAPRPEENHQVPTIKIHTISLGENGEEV

[7] = DRUGMATRIX: Interleukin IL-1 radioligand binding (ligand: [125I] interleukin 1beta); type: cell membranes, Membrane; conditions: nih3t3; Not Active = under 50% inhibition at 10 µM
[8] = DRUGMATRIX: Glutamate, NMDA, Phencyclidine radioligand binding (ligand: [3H] TCP); type: cell membranes, Rattus norvegicus, Wistar, Cerebral cortex, Membrane; conditions: Not Active = under 50% inhibition at 10 µM
[9] = DRUGMATRIX: Purinergic P2X radioligand binding (ligand: [3H] alpha, beta-Methylene-ATP); type: cell membranes, Oryctolagus cuniculus, New Zealand albino, Urinary bladder, Membrane; conditions: Not Active = under 50% inhibition at 10 µM
[10] = DRUGMATRIX: beta-Lactamase enzyme inhibition (substrate: Nitrocefin); set-up: species or system Bacillus cereus; conditions: Not Active = under 50% inhibition at 10 µM
[11] = biological target: T3, Cysteinyl leukotriene receptor 1 (Homo sapiens, UniProt Q9Y271); type: cell membranes, CHO-K1, Membrane; conditions: cho-k1; further: in other assays of this panel Not Active means under 50% inhibition at 10 µM
T3 sequence (Q9Y271 whole entry): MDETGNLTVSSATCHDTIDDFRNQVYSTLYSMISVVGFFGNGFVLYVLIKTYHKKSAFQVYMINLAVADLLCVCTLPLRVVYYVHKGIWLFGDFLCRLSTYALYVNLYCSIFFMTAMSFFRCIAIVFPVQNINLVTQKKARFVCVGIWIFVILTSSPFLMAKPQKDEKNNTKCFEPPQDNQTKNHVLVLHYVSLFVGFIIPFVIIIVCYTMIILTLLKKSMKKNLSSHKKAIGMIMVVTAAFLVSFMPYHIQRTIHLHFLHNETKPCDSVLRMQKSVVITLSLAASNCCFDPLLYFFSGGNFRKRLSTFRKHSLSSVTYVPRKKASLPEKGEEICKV

[12] = biological target: Voltage-gated inwardly rectifying potassium channel KCNH2 (Homo sapiens, UniProt Q12809); conditions: hek293; further: in other assays of this panel Not Active means under 50% inhibition at 10 µM
[13] = DRUGMATRIX: Potassium Channel [KATP] radioligand binding (ligand: [3H] Glyburide); type: cell membranes, Membrane; conditions: hit-t15; Not Active = under 50% inhibition at 10 µM

Chain of Mu-type opioid receptor (P35372 whole entry): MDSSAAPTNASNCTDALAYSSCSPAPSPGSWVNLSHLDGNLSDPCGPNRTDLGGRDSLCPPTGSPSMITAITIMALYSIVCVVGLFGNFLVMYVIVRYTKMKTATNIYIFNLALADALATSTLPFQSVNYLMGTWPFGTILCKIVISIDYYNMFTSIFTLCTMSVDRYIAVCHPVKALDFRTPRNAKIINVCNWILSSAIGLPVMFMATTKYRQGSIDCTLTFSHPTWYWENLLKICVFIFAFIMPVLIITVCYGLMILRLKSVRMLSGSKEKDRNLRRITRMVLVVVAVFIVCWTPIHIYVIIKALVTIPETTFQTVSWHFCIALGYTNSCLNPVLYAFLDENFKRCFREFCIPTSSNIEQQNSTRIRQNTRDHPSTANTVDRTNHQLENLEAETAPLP
Chain of Voltage-gated inwardly rectifying potassium channel KCNH2 (Q12809 whole entry): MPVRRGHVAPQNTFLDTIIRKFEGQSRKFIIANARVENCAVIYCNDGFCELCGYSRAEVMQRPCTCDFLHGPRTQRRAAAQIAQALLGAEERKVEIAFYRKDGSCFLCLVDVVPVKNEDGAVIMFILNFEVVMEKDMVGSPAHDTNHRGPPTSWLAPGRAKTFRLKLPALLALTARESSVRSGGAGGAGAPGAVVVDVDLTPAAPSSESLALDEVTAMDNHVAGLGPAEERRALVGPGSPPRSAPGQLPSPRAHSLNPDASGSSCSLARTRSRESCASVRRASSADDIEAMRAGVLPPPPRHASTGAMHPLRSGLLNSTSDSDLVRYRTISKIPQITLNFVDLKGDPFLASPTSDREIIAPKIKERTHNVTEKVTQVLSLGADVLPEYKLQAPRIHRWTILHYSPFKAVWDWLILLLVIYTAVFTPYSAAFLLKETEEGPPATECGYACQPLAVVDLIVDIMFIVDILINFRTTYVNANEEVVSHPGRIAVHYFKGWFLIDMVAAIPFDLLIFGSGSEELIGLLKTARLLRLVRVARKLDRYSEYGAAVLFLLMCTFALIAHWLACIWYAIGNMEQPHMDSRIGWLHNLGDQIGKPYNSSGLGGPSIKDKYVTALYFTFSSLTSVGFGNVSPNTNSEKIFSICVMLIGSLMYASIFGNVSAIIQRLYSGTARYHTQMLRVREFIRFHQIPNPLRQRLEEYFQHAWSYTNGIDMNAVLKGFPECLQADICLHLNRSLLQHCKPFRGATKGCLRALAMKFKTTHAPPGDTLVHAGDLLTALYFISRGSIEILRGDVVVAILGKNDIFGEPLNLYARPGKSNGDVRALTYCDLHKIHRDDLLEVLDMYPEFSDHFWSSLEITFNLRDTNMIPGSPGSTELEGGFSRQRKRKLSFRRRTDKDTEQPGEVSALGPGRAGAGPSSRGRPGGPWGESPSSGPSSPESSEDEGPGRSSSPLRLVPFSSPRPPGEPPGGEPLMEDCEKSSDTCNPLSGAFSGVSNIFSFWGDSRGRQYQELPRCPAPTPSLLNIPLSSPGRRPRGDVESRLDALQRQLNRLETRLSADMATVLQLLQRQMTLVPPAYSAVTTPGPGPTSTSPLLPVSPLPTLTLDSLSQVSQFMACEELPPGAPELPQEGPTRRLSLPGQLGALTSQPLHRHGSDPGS
Chain of Cytochrome P450 3A4 (P08684 whole entry): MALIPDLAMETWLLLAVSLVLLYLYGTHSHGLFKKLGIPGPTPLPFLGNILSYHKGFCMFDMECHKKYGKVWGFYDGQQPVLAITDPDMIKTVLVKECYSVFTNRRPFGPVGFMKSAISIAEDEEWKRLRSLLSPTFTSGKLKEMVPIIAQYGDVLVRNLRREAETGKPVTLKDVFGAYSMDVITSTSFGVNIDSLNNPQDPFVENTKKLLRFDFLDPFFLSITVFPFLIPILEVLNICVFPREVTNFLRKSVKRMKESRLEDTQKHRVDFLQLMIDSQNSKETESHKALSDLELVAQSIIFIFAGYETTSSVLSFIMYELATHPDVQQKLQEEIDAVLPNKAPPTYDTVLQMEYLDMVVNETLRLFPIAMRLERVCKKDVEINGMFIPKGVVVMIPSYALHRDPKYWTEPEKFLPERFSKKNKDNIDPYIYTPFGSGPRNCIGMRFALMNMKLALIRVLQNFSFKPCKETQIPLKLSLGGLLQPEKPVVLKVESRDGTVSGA
Chain of Sodium-dependent dopamine transporter (Q01959 whole entry): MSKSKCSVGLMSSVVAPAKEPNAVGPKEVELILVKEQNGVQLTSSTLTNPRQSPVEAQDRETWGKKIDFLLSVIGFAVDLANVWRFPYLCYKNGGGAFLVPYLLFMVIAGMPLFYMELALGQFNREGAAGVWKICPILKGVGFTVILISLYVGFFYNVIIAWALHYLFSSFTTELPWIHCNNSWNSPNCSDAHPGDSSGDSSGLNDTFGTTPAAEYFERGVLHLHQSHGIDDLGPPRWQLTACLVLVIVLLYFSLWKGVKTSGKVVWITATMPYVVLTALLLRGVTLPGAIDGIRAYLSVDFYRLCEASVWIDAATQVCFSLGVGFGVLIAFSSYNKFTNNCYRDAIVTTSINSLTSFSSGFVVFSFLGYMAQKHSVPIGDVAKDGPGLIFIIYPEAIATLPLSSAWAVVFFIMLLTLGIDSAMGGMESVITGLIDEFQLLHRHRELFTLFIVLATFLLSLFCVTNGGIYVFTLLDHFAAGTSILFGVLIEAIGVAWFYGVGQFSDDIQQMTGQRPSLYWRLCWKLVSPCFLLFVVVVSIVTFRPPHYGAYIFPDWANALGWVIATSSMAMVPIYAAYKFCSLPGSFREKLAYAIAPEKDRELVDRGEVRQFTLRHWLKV

CC(=O)OCC(=O)[C@@]1(OC(C)=O)[C@@H](C)C[C@H]2[C@@H]3C[C@H](F)C4=CC(=O)C=C[C@]4(C)[C@@]3(F)[C@@H](O)C[C@@]21C [DIFLORASONE DIACETATE]
Not Active: IC50 [1] | IC50 [2] | Ki [2] | IC50 [3] | IC50 [4] | Ki [4] | IC50 [5] | IC50 [6] | IC50 [7] | Ki [7] | IC50 [8] | Ki [8] | IC50 [9] | Ki [9] | IC50 [10] | Ki [10] | IC50 [11] | IC50 [12] | Ki [12] | IC50 [13] | Ki [13]

CNC(=O)Oc1ccc2c(c1)[C@]1(C)CCN(C)[C@@H]1N2C [PHYSOSTIGMINE]
Not Active: IC50 [1] | IC50 [2] | Ki [2] | IC50 [3] | IC50 [4] | Ki [4] | IC50 [5] | IC50 [6] | IC50 [7] | Ki [7] | IC50 [8] | Ki [8] | IC50 [9] | Ki [9] | IC50 [10] | Ki [10] | IC50 [11] | IC50 [12] | Ki [12] | IC50 [13] | Ki [13]

O=C1NC(=O)C(c2ccccc2)(c2ccccc2)N1 [PHENYTOIN]
Not Active: IC50 [1] | IC50 [2] | Ki [2] | IC50 [3] | IC50 [4] | Ki [4] | IC50 [5] | IC50 [6] | IC50 [7] | Ki [7] | IC50 [8] | Ki [8] | IC50 [9] | Ki [9] | IC50 [10] | Ki [10] | IC50 [11] | IC50 [12] | Ki [12] | IC50 [13] | Ki [13]

O=C1OC2(c3ccc(O)cc3Oc3cc(O)ccc32)c2ccccc21 [FLUORESCEIN]
Not Active: IC50 [1] | IC50 [2] | Ki [2] | IC50 [3] | IC50 [4] | Ki [4] | IC50 [5] | IC50 [6] | IC50 [7] | Ki [7] | IC50 [8] | Ki [8] | IC50 [9] | Ki [9] | IC50 [10] | Ki [10] | IC50 [11] | IC50 [12] | Ki [12] | IC50 [13] | Ki [13]

C=C1CC[C@H](O)C/C1=C/C=C1\CCC[C@]2(C)[C@@H]([C@H](C)/C=C/[C@H](C)C(C)C)CC[C@@H]12 [ERGOCALCIFEROL]
Not Active: IC50 [1] | IC50 [2] | Ki [2] | IC50 [3] | IC50 [4] | Ki [4] | IC50 [5] | IC50 [6] | IC50 [7] | Ki [7] | IC50 [8] | Ki [8] | IC50 [9] | Ki [9] | IC50 [10] | Ki [10] | IC50 [11] | IC50 [12] | Ki [12] | IC50 [13] | Ki [13]

NCC1(CC(=O)O)CCCCC1 [GABAPENTIN]
Not Active: IC50 [1] | IC50 [2] | Ki [2] | IC50 [3] | IC50 [4] | Ki [4] | IC50 [5] | IC50 [6] | IC50 [7] | Ki [7] | IC50 [8] | Ki [8] | IC50 [9] | Ki [9] | IC50 [10] | Ki [10] | IC50 [11] | IC50 [12] | Ki [12] | IC50 [13] | Ki [13]

O=c1cc(-c2ccccc2)oc2c1ccc1ccccc12 [ALPHA-NAPHTHOFLAVONE]
Not Active: IC50 [1] | IC50 [2] | Ki [2] | IC50 [3] | IC50 [4] | Ki [4] | IC50 [5] | IC50 [6] | IC50 [7] | Ki [7] | IC50 [8] | Ki [8] | IC50 [9] | Ki [9] | IC50 [10] | Ki [10] | IC50 [11] | IC50 [12] | Ki [12] | IC50 [13] | Ki [13]
